SMILES strings stand for the structures.

T1 sequence (P17931 whole entry): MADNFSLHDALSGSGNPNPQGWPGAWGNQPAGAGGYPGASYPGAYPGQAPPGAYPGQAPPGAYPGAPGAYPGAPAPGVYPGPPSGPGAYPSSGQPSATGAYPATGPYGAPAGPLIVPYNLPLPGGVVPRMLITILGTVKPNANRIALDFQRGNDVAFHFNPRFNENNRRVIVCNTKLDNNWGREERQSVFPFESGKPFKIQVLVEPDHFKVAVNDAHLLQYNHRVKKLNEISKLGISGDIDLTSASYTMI

One assay addresses T1, his-galectin-3 (Homo sapiens, UniProt P17931).
T1 construct: purchased Abcam
The assay can be described thus: TR-FRET assay (in vitro galectin-3 binding inhibitory activity test). Particulars: Table 1; compound at 20 μM; 60 nM his-galectin-3, 15 nM biotin-ASF; read-out: % Inhibitory activity (at 20 μM). The procedure: TR-FRET Assay (In Vitro Galectin-3 Binding Inhibitory Activity Test)
TR-FRET assay was performed in ½ Area Plate-96 (PerkinElmer). Final concentrations of components in the assay were 60 nM his-galectin-3 (Abcam), 15 nM biotin-ASF (Axxora), 2 nM Mab anti-6×His Tb (Cisbio) and 20 nM SA-d2 (Cisbio). The reaction was performed in a buffer containing 25 mM HEPES, 100 mM NaCl, 0.005% Tween 20 and 0.05% BSA. 20 μL his-galectin-3 and 1 μL compound were mixed first, and then 20 μL biotin-ASF, 5 μL anti-His Tb and 5 μL SA-d2 were added in order. After incubation for at least 3.5 hours at RT, TR-FRET signals were measured at 615/665 nm […] wavelengths using a VICTOR Nivo (PerkinElmer). The positive control used DMSO instead of the compound, and the negative control excluded ASF-biotin. N-acetyl-D-lactosamine (LacNAc), an endogenous ligand unit of galectin-3, was evaluated together as a control substance to compare galectin-3 binding inhibitory activity.
(In general: In TR-FRET formats the signal depends on donor and acceptor labels being close together.)
For the compound `O=C(CO[C@@H]1[C@@H](n2cc(-c3cc(F)c(F)c(F)c3)nn2)[C@@H](O)[C@@H](CO)O[C@@]12CCCO2)N1CC(F)(F)C1` [Compound A33, 1-(3,3-difluoroazetidin-1-yl)-2-(((5S,7R,8R,9S,10R)-8-hydroxy-7-(hydroxymethyl)-9-(4-(3,4,5-trifluorophenyl)-1H-1,2,3-triazol-1-yl)-1,6-dioxaspiro[4.5]decan-10-yl)oxy)ethanone], the inhibition at 20 µM is 25 to 50%.

For `OC[C@H]1O[C@]2(OCC[C@H]2NCc2ccc(Cl)o2)[C@H](O)[C@@H](n2cc(-c3cc(F)c(F)c(F)c3)nn2)[C@H]1O` [Compound A128, (4R,5S,7R,8R,9S,10R)-4-(((5-chlorofuran-2-yl)methyl)amino)-7-(hydroxymethyl)-9-(4-(3,4,5-trifluorophenyl)-1H-1,2,3-triazol-1-yl)-1,6-dioxaspiro[4.5]decane-8,10-diol], the inhibition at 20 µM lay within 50 to 75%.

Consider `OC[C@H]1O[C@@]2(CCCCS2)[C@H](O)[C@@H](n2cc(-c3cc(F)c(F)c(F)c3)nn2)[C@H]1O` [Compound A109, (2R,3R,4S,5R,6R)-2-(hydroxymethyl)-4-(4-(3,4,5-trifluorophenyl)-1H-1,2,3-triazol-1-yl)-1-oxa-7-thiaspiro[5.5]undecane-3,5-diol], for which the inhibition at 20 µM is under 25%.

Turning to `O=C(O[C@@H]1[C@@H](n2cc(-c3cc(F)c(F)c(F)c3)nn2)[C@@H](O)[C@@H](CO)O[C@@]12CCCO2)c1cc(F)cc(F)c1` [Compound A92, (5S,7R,8R,9S,10R)-8-hydroxy-7-(hydroxymethyl)-9-(4-(3,4,5-trifluorophenyl)-1H-1,2,3-triazol-1-yl)-1,6-dioxaspiro[4.5]decan-10-yl 3,5-difluorobenzoate], the inhibition at 20 µM lay in the range of 25 to 50%.

In the case of `OC[C@H]1O[C@]2(OCC[C@H]2NCc2cccnc2)[C@H](O)[C@@H](n2cc(-c3cc(F)c(F)c(F)c3)nn2)[C@H]1O` [Compound A85], the inhibition at 20 µM is over 75%.

For the compound `OC[C@H]1O[C@]2(OCC[C@H]2NCc2ccccc2F)[C@H](O)[C@@H](n2cc(-c3cc(F)c(F)c(F)c3)nn2)[C@H]1O` [Compound A87, (4R,5S,7R,8R,9S,10R)-4-((2-fluorobenzyl)amino)-7-(hydroxymethyl)-9-(4-(3,4,5-trifluorophenyl)-1H-1,2,3-triazol-1-yl)-1,6-dioxaspiro[4.5]decane-8,10-diol], the inhibition at 20 µM lay within 25 to 50%.

Consider `O=C(O[C@@H]1[C@@H](n2cc(-c3cc(F)c(F)c(F)c3)nn2)[C@@H](O)[C@@H](CO)O[C@@]12CCCO2)c1ccccn1` [Compound A72, (5S,7R,8R,9S,10R)-8-hydroxy-7-(hydroxymethyl)-9-(4-(3,4,5-trifluorophenyl)-1H-1,2,3-triazol-1-yl)-1,6-dioxaspiro[4.5]decan-10-yl picolinate], for which the inhibition at 20 µM was 50 to 75%.

For the compound `COc1ccc2c(c1)CC[C@]1(O2)O[C@H](CO)[C@H](O)[C@H](OCc2cc3c(F)c(F)ccc3oc2=O)[C@H]1O` [Compound A08, 3-((((2R,3′R,4'S,5'S,6′R)-3′,5′-dihydroxy-6′-(hydroxymethyl)-6-methoxy-3′,4′,5′,6′-tetrahydrospiro[chromane-2,2′-pyran]-4′-yl)oxy)methyl)-5,6-difluoro-2H-chromen-2-one], the inhibition at 20 µM was under 25%.

Consider `OC[C@H]1O[C@@]2(CCCCO2)[C@H](OCc2ccc3c(c2)OCO3)[C@@H](n2cc(-c3cc(F)c(F)c(F)c3)nn2)[C@H]1O` [Compound A44, (2R,3R,4S,5R,6S)-5-(benzo[d][1,3]dioxol-5-ylmethoxy)-2-(hydroxymethyl)-4-(4-(3,4,5-trifluorophenyl)-1H-1,2,3-triazol-1-yl)-1,7-dioxaspiro[5.5]undecan-3-ol], for which the inhibition at 20 µM was in the range of 25 to 50%.

Staying with this assay, now noted: Table 2; compound at 20 μM; 60 nM his-galectin-3, 15 nM biotin-ASF; read-out: % Inhibitory activity (at 20 μM).
Turning to `O=C(N[C@@H]1CCO[C@]12O[C@H](CO)[C@H](O)[C@H](n1cc(-c3cc(F)c(F)c(F)c3)nn1)[C@H]2O)c1cccc2scnc12` [Compound A194, N-((4R,5S,7R,8R,9S,10R)-8,10-dihydroxy-7-(hydroxymethyl)-9-(4-(3,4,5-trifluorophenyl)-1H-1,2,3-triazol-1-yl)-1,6-dioxaspiro[4.5]decan-4-yl)benzo[d]thiazole-4-carboxamide], the inhibition at 20 µM was 50 to 75%.

For `OC[C@H]1O[C@@]2(CCCN(c3cccc4ccccc34)C2)[C@H](O)[C@@H](n2cc(-c3cc(F)c(F)c(F)c3)nn2)[C@H]1O` [Compound A220, (2R,3R,4S,5R,6R)-2-(hydroxymethyl)-8-(naphthalen-1-yl)-4-(4-(3,4,5-trifluorophenyl)-1H-1,2,3-triazol-1-yl)-1-oxa-8-azaspiro[5.5]undecane-3,5-diol], the inhibition at 20 µM is under 25%.

Turning to `OC[C@H]1O[C@@]2(CCCN(c3ccccc3Cl)C2)[C@H](O)[C@@H](n2cc(-c3cc(F)c(F)c(F)c3)nn2)[C@H]1O` [Compound A222, (2R,3R,4S,5R,6R)-8-(2-chlorophenyl)-2-(hydroxymethyl)-4-(4-(3,4,5-trifluorophenyl)-1H-1,2,3-triazol-1-yl)-1-oxa-8-azaspiro[5.5]undecane-3,5-diol], the inhibition at 20 µM was under 25%.

In the case of `COc1ccc2ccccc2c1C(=O)N[C@@H]1CCO[C@]12O[C@H](CO)[C@H](O)[C@H](n1cc(-c3cc(F)c(F)c(F)c3)nn1)[C@H]2O` [Compound A242, N-((4R,5S,7R,8R,9S,10R)-8,10-dihydroxy-7-(hydroxymethyl)-9-(4-(3,4,5-trifluorophenyl)-1H-1,2,3-triazol-1-yl)-1,6-dioxaspiro[4.5]decan-4-yl)-2-methoxy-1-naphthamide], the inhibition at 20 µM lay within 50 to 75%.

Turning to `Cc1cc(C(=O)N[C@@H]2CCO[C@]23O[C@H](CO)[C@H](O)[C@H](n2cc(-c4cc(F)c(F)c(F)c4)nn2)[C@H]3O)c2cc(Cl)ccc2n1` [Compound A229, 6-chloro-N-((4R,5S,7R,8R,9S,10R)-8,10-dihydroxy-7-(hydroxymethyl)-9-(4-(3,4,5-trifluorophenyl)-1H-1,2,3-triazol-1-yl)-1,6-dioxaspiro[4.5]decan-4-yl)-2-methylquinoline-4-carboxamide], the inhibition at 20 µM is over 75%.

Regarding `O=C(N[C@@H]1CCO[C@]12O[C@H](CO)[C@H](O)[C@H](n1cc(-c3cc(F)c(F)c(F)c3)nn1)[C@H]2O)c1cc2ccccc2cc1Cl` [Compound A201, 3-chloro-N-((4R,5S,7R,8R,9S,10R)-8,10-dihydroxy-7-(hydroxymethyl)-9-(4-(3,4,5-trifluorophenyl)-1H-1,2,3-triazol-1-yl)-1,6-dioxaspiro[4.5]decan-4-yl)-2-naphthamide], the inhibition at 20 µM was over 75%.

On to `O=C(N[C@@H]1CCO[C@]12O[C@H](CO)[C@H](O)[C@H](n1cc(-c3cc(F)c(F)c(F)c3)nn1)[C@H]2O)c1ccc2sccc2c1` [Compound A196, N-((4R,5S,7R,8R,9S,10R)-8,10-dihydroxy-7-(hydroxymethyl)-9-(4-(3,4,5-trifluorophenyl)-1H-1,2,3-triazol-1-yl)-1,6-dioxaspiro[4.5]decan-4-yl)benzo[b]thiophene-5-carboxamide], for which the inhibition at 20 µM lay within 50 to 75%.

Still in this assay, the particulars now being: Table 3, found values; compound at 20 μM; 60 nM his-galectin-3, 15 nM biotin-ASF; read-out: % Inhibitory activity (at 20 μM).
In the case of `COc1ccc2c(c1)CC[C@]1(O2)O[C@H](CO)[C@H](O)[C@H](OCc2cc3c(F)c(F)ccc3oc2=O)[C@H]1O` [Compound A08, 3-((((2R,3′R,4'S,5'S,6′R)-3′,5′-dihydroxy-6′-(hydroxymethyl)-6-methoxy-3′,4′,5′,6′-tetrahydrospiro[chromane-2,2′-pyran]-4′-yl)oxy)methyl)-5,6-difluoro-2H-chromen-2-one], the inhibition at 20 µM worked out at 21.8%.

The assay is the same for the next values; noted with them: read-out: % Inhibitory activity (at 20 μM), Table 1; compound at 20 μM; 60 nM his-galectin-3, 15 nM biotin-ASF.
On to `OC[C@H]1O[C@@]2(CCCN(Cc3ccccc3)C2)[C@H](O)[C@@H](n2cc(-c3cc(F)c(F)c(F)c3)nn2)[C@H]1O` [Compound A141, (2R,3R,4S,5R,6R)-8-benzyl-2-(hydroxymethyl)-4-(4-(3,4,5-trifluorophenyl)-1H-1,2,3-triazol-1-yl)-1-oxa-8-azaspiro[5.5]undecane-3,5-diol], for which the inhibition at 20 µM is under 25%.

Regarding `OC[C@H]1O[C@@]2(CCCO2)[C@H](OCc2cccc(Cl)c2)[C@@H](n2cc(-c3cc(F)c(F)c(F)c3)nn2)[C@H]1O` [Compound A64, (5S,7R,8R,9S,10R)-10-((3-chlorobenzyl)oxy)-7-(hydroxymethyl)-9-(4-(3,4,5-trifluorophenyl)-1H-1,2,3-triazol-1-yl)-1,6-dioxaspiro[4.5]decan-8-ol], the inhibition at 20 µM was under 25%.

`OC[C@H]1O[C@@]2(CCCN(Cc3cccnc3)C2)[C@H](O)[C@@H](n2cc(-c3cc(F)c(F)c(F)c3)nn2)[C@H]1O` [Compound A142, (2R,3R,4S,5R,6R)-2-(hydroxymethyl)-8-(pyridin-3-ylmethyl)-4-(4-(3,4,5-trifluorophenyl)-1H-1,2,3-triazol-1-yl)-1-oxa-8-azaspiro[5.5]undecane-3,5-diol]: the inhibition at 20 µM was under 25%.

Take `O=C(Cc1cccc(Cl)c1)N[C@@H]1CCO[C@]12O[C@H](CO)[C@H](O)[C@H](n1cc(-c3cc(F)c(F)c(F)c3)nn1)[C@H]2O` [Compound A106, 2-(3-chlorophenyl)-N-((4R,5S,7R,8R,9S,10R)-8,10-dihydroxy-7-(hydroxymethyl)-9-(4-(3,4,5-trifluorophenyl)-1H-1,2,3-triazol-1-yl)-1,6-dioxaspiro[4.5]decan-4-yl)acetamide]: the inhibition at 20 µM was in the range of 50 to 75%.

The same assay, now with this note: read-out: % Inhibitory activity (at 20 μM), Table 2; compound at 20 μM; 60 nM his-galectin-3, 15 nM biotin-ASF.
For the compound `COc1cccc(CN[C@@H]2CCO[C@]23O[C@H](CO)[C@H](O)[C@H](n2cc(-c4cc(F)c(F)c(F)c4)nn2)[C@H]3O)c1` [Compound A155, (4R,5S,7R,8R,9S,10R)-7-(hydroxymethyl)-4-((3-methoxylbenzyl)amino)-9-(4-(3,4,5-trifluorophenyl)-1H-1,2,3-triazol-1-yl)-1,6-dioxaspiro[4.5]decane-8,10-diol], the inhibition at 20 µM is under 25%.

(Values after patent US20250026778A1 (TIUMBIO CO., LTD., priority 2021, published 2025).)
